Like-named read-outs stand apart in the source and are kept apart here.
Assays:
NLRP3 inflammasome [1] = molecular target: NLRP3 inflammasome (Mus musculus, UniProt Q8R4B8); assay: Inhibition of IL-1β release, NLRP3 inflammasome activation assay in BMDM; type: cell-based
Protocol: The following assays can be used to determine inhibitory activity of test compounds on the NLRP3 inflammasome using common stimuli such as adenosine triphosphate, nigericin, LeuLeu-OMe or monosodium urate crystals (MSU).
Mouse bone marrow-derived macrophages (BMDM) were derived from bone marrow progenitors isolated from the femurs and tibias of C57BL/6 mice.
BMDM are seeded at 1×10^5/ml. The following day the overnight medium is replaced and cells are stimulated with Ultrapure lipopolysaccharide from Escherichia coli K12 strain (InvivoGen) for 3 h. Medium is removed and replaced with serum free medium (SFM) containing test compound 30 min prior to NLRP3 stimulation. […] ATP can be sourced from Sigma Aldrich, nigericin and MSU from Invivogen and LeuLeu-Ome from Chem-Impex International.
For ELISA and cell death assays cells are seeded in 96 well plates. Supernatants are removed and analysed using ELISA kits according to the manufacturer's instructions (DuoSet® R&D Systems, ReadySetGo!® eBioscience, BD OptEIA™, or Perkin Elmer AlphaLISA®). Cell death is assessed by measurement of LDH release relative to a 100% cell lysis control using the CytoTox96® non-radioactive cytotoxicity assay (Promega).

NLRP3 inflammasome [2] = molecular target: NLRP3 inflammasome (Homo sapiens, UniProt Q96P20); assay: Inhibition of IL-1β release, NLRP3 inflammasome activation assay in HMDM; type: cell-based
NLRP3 inflammasome (Homo sapiens, UniProt Q96P20), sequence (Q96P20 whole entry): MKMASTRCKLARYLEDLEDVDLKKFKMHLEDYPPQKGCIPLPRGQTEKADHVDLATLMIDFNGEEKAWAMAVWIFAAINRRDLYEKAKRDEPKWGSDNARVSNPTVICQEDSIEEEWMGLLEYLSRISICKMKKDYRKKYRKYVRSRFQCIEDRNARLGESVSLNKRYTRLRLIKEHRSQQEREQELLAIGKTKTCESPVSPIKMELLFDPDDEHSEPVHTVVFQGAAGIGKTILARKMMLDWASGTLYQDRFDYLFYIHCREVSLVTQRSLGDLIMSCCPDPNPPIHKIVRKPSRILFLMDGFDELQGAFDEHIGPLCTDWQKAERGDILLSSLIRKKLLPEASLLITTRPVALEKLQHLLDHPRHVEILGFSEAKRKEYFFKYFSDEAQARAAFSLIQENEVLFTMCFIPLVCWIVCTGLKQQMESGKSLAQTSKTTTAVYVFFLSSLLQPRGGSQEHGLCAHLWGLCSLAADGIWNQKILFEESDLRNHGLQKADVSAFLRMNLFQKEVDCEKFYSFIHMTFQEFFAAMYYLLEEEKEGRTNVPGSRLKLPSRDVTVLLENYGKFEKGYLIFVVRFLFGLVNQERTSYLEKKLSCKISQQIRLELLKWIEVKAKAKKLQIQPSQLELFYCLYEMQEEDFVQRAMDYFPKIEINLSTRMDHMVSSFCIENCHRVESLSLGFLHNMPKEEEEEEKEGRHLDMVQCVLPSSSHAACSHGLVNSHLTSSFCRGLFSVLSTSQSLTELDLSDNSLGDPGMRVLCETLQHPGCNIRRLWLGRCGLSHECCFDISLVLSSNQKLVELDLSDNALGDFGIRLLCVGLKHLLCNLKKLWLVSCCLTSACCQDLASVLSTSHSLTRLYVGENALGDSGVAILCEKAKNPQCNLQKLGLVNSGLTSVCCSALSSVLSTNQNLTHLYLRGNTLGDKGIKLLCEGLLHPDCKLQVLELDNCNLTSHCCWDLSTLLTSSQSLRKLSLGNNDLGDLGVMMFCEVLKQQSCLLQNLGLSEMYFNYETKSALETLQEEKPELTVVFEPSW
Outline: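 Primary human monocyte-derived macrophages from CD14+ buffy-coat monocytes, seeded at 1×10^5/ml. Compound added in serum-free medium 30 min before NLRP3 stimulation (ATP, nigericin, LeuLeu-OMe or MSU). Cytokine in supernatants measured by ELISA or AlphaLISA; cell death by LDH release relative to full lysis.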

[3] = select compounds of the first aspect (Table 10), read-out: BMDM IC50 vs NLRP3
[4] = select compounds of the first aspect (Table 10), read-out: HMDM IC50 vs NLRP3
[5] = inhibition of IL-1β release, class symbols, read-out: Avg. IL-1β IC50 Murine BMDM
[6] = inhibition of IL-1β release, class symbols, read-out: Avg. IL-1β IC50 HMDM
[7] = inhibition of IL-1β release, numeric bounds, read-out: Avg. IL-1β IC50 Murine BMDM

NLRP3 inflammasome (Mus musculus, UniProt Q8R4B8), sequence (Q8R4B8 whole entry): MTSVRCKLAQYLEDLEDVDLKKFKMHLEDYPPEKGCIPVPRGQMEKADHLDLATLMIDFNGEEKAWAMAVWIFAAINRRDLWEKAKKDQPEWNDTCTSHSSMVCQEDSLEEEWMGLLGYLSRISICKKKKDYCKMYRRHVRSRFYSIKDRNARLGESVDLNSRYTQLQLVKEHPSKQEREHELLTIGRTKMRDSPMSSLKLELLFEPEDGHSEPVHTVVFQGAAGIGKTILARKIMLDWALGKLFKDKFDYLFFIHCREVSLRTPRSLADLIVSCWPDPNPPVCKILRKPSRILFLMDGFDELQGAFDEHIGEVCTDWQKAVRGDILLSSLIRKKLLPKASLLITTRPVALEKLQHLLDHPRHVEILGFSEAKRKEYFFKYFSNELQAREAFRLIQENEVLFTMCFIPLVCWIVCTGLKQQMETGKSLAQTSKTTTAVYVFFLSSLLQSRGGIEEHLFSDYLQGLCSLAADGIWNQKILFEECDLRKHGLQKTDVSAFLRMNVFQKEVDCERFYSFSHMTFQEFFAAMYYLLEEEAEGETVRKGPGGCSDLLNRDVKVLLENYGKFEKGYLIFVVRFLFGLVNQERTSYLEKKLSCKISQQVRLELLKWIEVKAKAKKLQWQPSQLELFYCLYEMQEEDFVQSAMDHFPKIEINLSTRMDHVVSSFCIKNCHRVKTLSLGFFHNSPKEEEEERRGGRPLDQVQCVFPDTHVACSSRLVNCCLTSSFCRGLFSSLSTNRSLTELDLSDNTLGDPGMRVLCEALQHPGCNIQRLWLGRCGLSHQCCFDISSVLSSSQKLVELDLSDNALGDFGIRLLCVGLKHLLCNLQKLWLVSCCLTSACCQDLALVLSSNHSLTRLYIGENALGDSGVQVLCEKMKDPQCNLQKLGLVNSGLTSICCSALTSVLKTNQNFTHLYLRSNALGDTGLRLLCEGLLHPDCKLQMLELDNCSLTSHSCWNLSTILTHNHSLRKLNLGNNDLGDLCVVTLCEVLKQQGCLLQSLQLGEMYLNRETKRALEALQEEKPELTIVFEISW

SMILES	IC50 (NLRP3 inflammasome [1]; [5])	IC50 (NLRP3 inflammasome [2]; [6])	further results
Cc1cc(C(=O)NCCc2ccc(S(=O)(=O)NC(=O)Nc3c4c(cc5c3CCC5)CCC4)cc2)no1 [drawing 362]	–	–	IC50 (NLRP3 inflammasome [1]; [3]): 0.28 µM; IC50 (NLRP3 inflammasome [2]; [4]): 0.19 µM
C=C(C)c1coc(S(=O)(=O)NC(=O)Nc2c3c(cc4c2CCC4)CCC3)c1 [N-((1,2,3,5,6,7-hexahydro-s-indacen-4-yl)carbamoyl)-4-(prop-1-en-2-yl)furan-2-sulfonamide]	< 1 µM	< 1 µM	–
CC(C)(O)c1coc(S(=O)(=O)NC(=O)Nc2c3c(c(Br)c4c2CCC4)CCC3)c1 [N-((8-bromo-1,2,3,5,6,7-hexahydro-s-indacen-4-yl)carbamoyl)-4-(2-hydroxypropan-2-yl)furan-2-sulfonamide]	< 0.1 µM	< 0.1 µM	–
O=C(Nc1ccc(Cl)cc1)NS(=O)(=O)c1ccc2c(c1)CCC2 [N-((4-chlorophenyl)carbamoyl)-2,3-dihydro-1H-indene-5-sulfonamide]	–	–	IC50 (NLRP3 inflammasome [1]; [7]): > 10 µM; IC50 (NLRP3 inflammasome [2]; inhibition of IL-1β release, numeric bounds, read-out: Avg. IL-1β IC50 HMDM): > 100 µM
COc1cccc(S(=O)(=O)NC(=O)Nc2c3c(cc4c2CCC4)CCC3)c1 [N-(1,2,3,5,6,7-hexahydros-indacen-4-ylcarbamoyl)-3-methoxybenzenesulfonamide]	< 0.1 µM	< 0.1 µM	–
CC(C)n1ccc(S(=O)(=O)NC(=O)Nc2c(C3CC3)cc(Cl)cc2C2CC2)n1 [N-((4-chloro-2,6-dicyclopropylphenyl)carbamoyl)-1-isopropyl-1H-pyrazole-3-sulfonamide]	< 1 µM	< 1 µM	–
Cc1cc(Cl)cc(C(F)(F)F)c1NC(=O)NS(=O)(=O)c1ccn(C(C)C)n1 [N-((4-chloro-2-methyl-6-(trifluoromethyl)phenyl)carbamoyl)-1-isopropyl-1H-pyrazole-3-sulfonamide]	–	< 10 µM	IC50 (NLRP3 inflammasome [1]; [7]): > 10 µM
COc1cc(Cl)cc(OC)c1NC(=O)NS(=O)(=O)c1ccn(C(C)C)n1 [N-((4-chloro-2,6-dimethoxyphenyl)carbamoyl)-1-isopropyl-1H-pyrazole-3-sulfonamide]	–	< 50 µM	IC50 (NLRP3 inflammasome [1]; [7]): > 10 µM
COc1ccc(Cl)cc1C(=O)NCCc1ccc(S(=O)(=O)NC(=O)Nc2c3c(cc4c2CCC4)CCC3)cc1 [drawing 358]	–	–	IC50 (NLRP3 inflammasome [1]; [3]): 0.24 µM; IC50 (NLRP3 inflammasome [2]; [4]): 0.14 µM
CC(C)(O)c1coc(S(=O)(=O)NC(=O)Nc2cc(C(F)(F)F)ccc2C(F)(F)F)c1 [N-((2,5-bis(trifluoromethyl)phenyl)carbamoyl)-4-(2-hydroxypropan-2-yl)furan-2-sulfonamide]	< 1 µM	< 10 µM	–
Cc1cc(C(=O)NCCc2ccc(S(=O)(=O)NC(=O)Nc3c4c(cc5c3CCC5)CCC4)cc2)no1 [N-(4-(N-((1,2,3,5,6,7-hexahydro-s-indacen-4-yl)carbamoyl)sulfamoyl)phenethyl)-5-methylisoxazole-3-carboxamide]	< 1 µM	< 1 µM	–
O=C(Nc1c2c(cc3c1CCC3)CCC2)NS(=O)(=O)c1ccc([N+](=O)[O-])cc1 [drawing 368]	–	–	IC50 (NLRP3 inflammasome [1]; [3]): 0.043 µM
O=C(Nc1c2c(cc3c1CCC3)CCC2)NS(=O)(=O)c1cc(C(=O)O)co1 [5-(N-((1,2,3,5,6,7-hexahydro-s-indacen-4-yl)carbamoyl)sulfamoyl)furan-3-carboxylic acid]	< 10 µM	–	–
Cc1oc(S(=O)(=O)NC(=O)Nc2c3c(cc4c2CCC4)CCC3)cc1C(C)(C)O [N-((1,2,3,5,6,7-hexahydro-s-indacen-4-yl)carbamoyl)-4-(2-hydroxypropan-2-yl)-5-methylfuran-2-sulfonamide]	< 0.1 µM	–	–
CC(C)(O)c1coc(S(=O)(=O)NC(=O)Nc2c(C3CC3)cc(Cl)cc2C2CC2)c1 [N-((4-chloro-2,6-dicyclopropylphenyl)carbamoyl)-4-(2-hydroxypropan-2-yl)furan-2-sulfonamide]	< 0.1 µM	–	–
O=C(Nc1c2c(cc3c1CCC3)CCC2)NS(=O)(=O)c1nnc[nH]1 [N-((1,2,3,5,6,7-hexahydro-s-indacen-4-yl)carbamoyl)-4H-1,2,4-triazole-3-sulfonamide]	< 0.1 µM	–	–
CC(C)(O)c1coc(S(=O)(=O)NC(=O)Nc2c3c(c(Br)c4c2OCC4)CCC3)c1 [N-((4-bromo-3,5,6,7-tetrahydro-2H-indeno[5,6-b]furan-8-yl)carbamoyl)-4-(2-hydroxypropan-2-yl)furan-2-sulfonamide]	< 0.1 µM	–	–

Reference: patent US10538487B2, “Sulfonylureas and related compounds and use of same” (priority 2015, dated 2020)
